This is an account of results in US7625902B2, “Imidazolidinone derivatives” (Hoffmann-La Roche Inc., priority 2007, dated 2009).

Experiment [1] concerns the target T1, human LXR alpha ligand binding domain (LXRα-LBD) (Homo sapiens, UniProt Q13133).
T1 construct: human LXR alpha (aa 164 to 447); unspecified tag ('tagged versions'); made in house; host or cells: E. coli BL21 (pLysS)
T1 sequence (Q13133 164-447): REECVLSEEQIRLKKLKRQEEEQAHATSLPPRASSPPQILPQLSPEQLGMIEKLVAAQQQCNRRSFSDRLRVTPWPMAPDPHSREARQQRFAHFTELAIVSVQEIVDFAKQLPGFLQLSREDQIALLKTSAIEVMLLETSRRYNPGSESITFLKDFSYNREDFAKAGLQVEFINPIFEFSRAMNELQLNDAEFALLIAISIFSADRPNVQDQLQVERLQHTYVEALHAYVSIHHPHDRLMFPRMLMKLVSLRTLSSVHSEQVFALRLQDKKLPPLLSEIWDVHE
Kind of experiment: Radioligand binding assay (SPA), LXR alpha. Particulars: LXRα-LBD on SPA beads, read-out: LXRalpha Binding IC50. Here is the method:
(§1) The following tests were carried out in order to determine the activity of the compounds of the present invention. Background information on the performed assays can be found in: Nichols J S et al. “Development of a scintillation proximity assay for peroxisome proliferator-activated receptor gamma ligand binding domain”, Anal Biochem. 1998, 257: 112-119.
(§2) Mammalian expression vectors were constructed to express full-length human LXR alpha and LXR beta. Bacterial expression vectors were constructed to produce tagged versions of the ligand binding domains (LBD) of human LXR alpha (aa 164 to 447) and human LXR beta (aa 155 to 460). To accomplish this, the portions of the sequences encoding the LBDs were amplified from the full-length clones by PCR and then subcloned into the plasmid vectors. Final clones were verified by DNA sequence analysis (Willy et al., Genes Dev. 1995, 9:1033-45; Song et al., Proc Natl Acad Sci USA.1994, 91:10809-13).
(§3) Induction, expression, and purification of LBD proteins were performed in E. coli strain BL21 (pLysS) cells by standard methods (Ref: Current Protocols in Molecular Biology, Wiley Press, edited by Ausubel et al).
(§4) Radioligand Binding Assay
(§5) LXR alpha and LXR beta receptor binding were assayed in buffer consisting of 50 mM HEPES, pH 7.4, 10 mM NaCl, 5 mM MgCl2. For each 96-well reaction, 500 ng of LXRα-LBD or 700 ng of LXR beta-LBD proteins were bound to 80 μg or 40 μg SPA beads respectively, in a final volume of 50 μl by shaking. The resulting slurry was incubated for 1 h at RT and centrifuged for 2 min at 1300×g. The supernatant containing unbound protein was removed, and the semi-dry pellet containing the receptor-coated beads was re-suspended in 50 μl of buffer. […] All binding assays were performed in 96-well plates and the amount of bound ligand was measured on a Packard TopCount using OptiPlates (Packard). Dose response curves were measured within a range of concentration from 10^−10 M to 10^−4 M.

The target of experiment [2] is T2, human LXR beta ligand binding domain (LXR beta-LBD) (Homo sapiens, UniProt P55055).
T2 construct: human LXR beta (aa 155 to 460); unspecified tag ('tagged versions'); made in house; host or cells: E. coli BL21 (pLysS)
T2 sequence (P55055 155-460): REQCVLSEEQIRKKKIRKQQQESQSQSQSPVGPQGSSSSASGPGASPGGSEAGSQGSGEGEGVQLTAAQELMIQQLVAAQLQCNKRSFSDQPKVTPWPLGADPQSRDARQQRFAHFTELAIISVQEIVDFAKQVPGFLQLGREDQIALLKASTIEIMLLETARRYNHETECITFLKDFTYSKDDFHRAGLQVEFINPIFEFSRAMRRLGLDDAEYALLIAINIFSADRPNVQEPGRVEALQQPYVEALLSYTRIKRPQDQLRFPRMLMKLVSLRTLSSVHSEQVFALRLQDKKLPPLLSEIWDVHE
The experiment is described as follows: Radioligand binding assay (SPA), LXR beta. The note with it: LXR beta-LBD on SPA beads, read-out: LXRbeta Binding IC50. The procedure:
as §1, §2, §3, §4, §5

What is called IC50 is the concentration that inhibits the measured activity by half. Regarding `O=C(C1CN(S(=O)(=O)c2ccccc2)C(=O)N1C1CCCCC1)N1CCN(c2ncccc2C(F)(F)F)CC1` (racemic) [Example 39, (RS)-1-Benzenesulfonyl-3-cyclohexyl-4-[4-(3-trifluoromethyl-pyridin-2-yl)-piperazine-1-carbonyl]-imidazolidin-2-one], the half-maximal inhibitory concentration (IC50) is 5500 nM in experiment [1] and 480 nM in experiment [2].

In the case of `O=C(C1CN(S(=O)(=O)c2ccccc2)C(=O)N1c1ccccc1Cl)N1CCN(c2ncccc2Cl)CC1` (racemic) [Example 63, (RS)-1-Benzenesulfonyl-3-(2-chloro-phenyl)-4-[4-(3-chloro-pyridin-2-yl)-piperazine-1-carbonyl]-imidazolidin-2-one], the IC50 came out at 2500 nM in experiment [1] and 240 nM in experiment [2].

For `Cc1ccc(C)c(N2CCN(C(=O)[C@@H]3CN(S(=O)(=O)c4ccccc4)C(=O)N3c3ccccc3Cl)CC2)c1` [Example 50, (S)-1-Benzenesulfonyl-3-(2-chloro-phenyl)-4-[4-(2,5-dimethyl-phenyl)-piperazine-1-carbonyl]-imidazolidin-2-one], the figures for the IC50 in experiment [1] and in experiment [2] were 260 nM and 100 nM, respectively.
